Source: patent US12326385B2, “Cell-permeable fluorogenic fluorophores” (MAX-PLANCK-GESELLSCHAFT ZUR FÖRDERUNG DER WISSENSCHAFTEN E. …, priority 2018, dated 2025)
Marks after values point to notes of the source that are not given here.

How the values were obtained:
[1] = UV absorbance spectra in water-dioxane mixtures (D50); assay type: physicochemical; conditions: dioxane-H2O mixture (v/v: 90/10-10/90); dielectric constant at half-maximal zwitterion absorbance
Excerpt: The inventors' efforts to improve the permeability and fluorogenicity of rhodamine derivatives for live-cell imaging focused on increasing the propensity of rhodamines to form the spirocyclic, non-fluorescent form without affecting the spectroscopic properties of the parental molecule. The inventors initially considered replacing the carboxylic acid responsible for formation of the spirolactone with an amide. However, such rhodamine derivatives have been reported to strongly favor spirolactams at physiological pH, making them unsuitable for live-cell imaging. The inventors therefore attempted to destabilize the spirolactam by attaching different electron-withdrawing groups to the underlying amides. Specifically, the inventors converted 6-carboxytetramethylrhodamine (6-TAMRA), a widely used fluorophore with good photophysical properties, into the corresponding acyl cyanamide (132), acyl sulfonamide (133) and acyl sulfamide (134 and 135), (FIG. 32c). The acyl cyanamide of rhodamine B was previously reported to exist as a fluorescent zwitterion at physiological pH. Acyl sulfonamides and acyl sulfamides are used in medicinal chemistry as anionic pharmacophores. Amides 132-135 were prepared in three simple steps from commercially available 6-TAMRA (FIG. 32c). To investigate the propensity of these amides to form the corresponding spirolactams, the inventors measured their absorbance spectra in water-dioxane mixtures with […]. The equilibrium between the zwitterionic and spirocyclic form can then be characterized by the D50 value, which is defined as the dielectric constant at which absorbance of the fluorescent zwitterion is decreased by half compared to the highest recorded absorbance value measured in dioxane-water mixtures. […] In comparison, the D50 value of TAMRA is around 10 showing that in aqueous solution TAMRA exists predominantly in its open form and TAMRA-based probes are usually not fluorogenic. The measured D50 values of amides 132-135 ranged from 32 to around 60 (FIG. 32d), which indicates the potential of these fluorophores for the generation of permeable and fluorogenic probes. […] The possibility to tune the equilibrium between the open and closed form of the fluorophore by varying the substituents on the amide is an important feature of this approach.
Measurements of UV Absorbance Spectra in Water-Dioxane Mixtures
Solutions of 5 μM Rhodamine B, RhB-CH3 (201, Z=CH3), RhB-Ben (201, Z=CH2Ph), RhB-CN (201, Z=CN), RhB-SCH3 (115), RhB-SNH2 (116), RhB-SNMe2 (117), RhB-CONH2 (118), WS1-SCF3, (119) WS1-SCH3 (120), WS1-CN (121), WS1-SNH2 (122), WS1-SO (123), WS1-UREA (124) in water-dioxane mixtures containing 10%, 20%, 30%, 40%, 50%, 60%, 70%, 80% and 90% of dioxane (by volume) were prepared. The absorbance spectra were recorded using a Spark® microplate reader (Tecan). The spectra were integrated from 400 to 700 nm for Rhodamine B-based fluorophores and from 350 to 750 nm for WS1-based fluorophores using the software Prism 7. Normalized integrals were plotted against dielectric constant of water-dioxane mixture.

SNAP-Halo-tag = test: Increase in absorbance and fluorescence on binding to SNAP-HaloTag protein in vitro; assay type: biochemical; conditions: binding with SNAP-Halo-tag
Protocol: Measurement of Increase in Absorbance and Fluorescence.
SNAP-HaloTag protein were used as a 85 μM-200 μM solution in 75 mM NaCl, 50 mM TRIS-HCl, pH 7.4 with 50% v/v glycerol (TBS-glycerol). SNAPTag and HaloTag based fluorogenic probes were diluted to 1.0-2.0 μM in 10 mM HEPES, pH 7.3. Then an aliquot of SNAPTag/HaloTag protein (1.5-2.0 equiv) was added and the resulting mixture was incubated until consistent absorbance signal was observed (˜60 min).
(§1) SDS (10% in 10 mM HEPES) was added with dilution of 100 folds as a control group. Absorbance and fluorescence measurements were performed in 96-well plate (Thermos Fisher) with optical bottom.

[2] = UV-Vis and fluorescence spectroscopy of free dye or probe in buffer or SDS; assay type: physicochemical
Protocol: UV-Vis and Fluorescence Spectroscopy
Spectroscopy was performed using 96-well plate (Thermo Fisher) with optical bottom. All measurements were taken at ambient temperature (25±2° C.). Absorption and fluorescence spectra were recorded on Spark® microplate reader (Tecan). Maximum absorption wavelength (λabs), and maximum emission wavelength (λem) were taken in 10 mM HEPES, pH 7.3 buffer unless otherwise noted; reported values for ε are averages (n=3). Normalized spectra are shown for clarity.
as §1

F-actin in U2OS cells = test: No-wash live-cell imaging of F-actin; assay type: cell-based
Excerpt: Fluorescent probes for live-cell imaging of cytoskeletal structures have become important tools in the life sciences. In particular, the far-red, SiR-based probes for F-actin (SiR-actin) and microtubules (SiR-tubulin) have become popular as they are fluorogenic and enable no-wash imaging with little background signal. SiR-actin and SiR-tubulin are based on SiR linked to the F-actin-binder jasplakinolide and microtubule-binder docetaxel, respectively. Binding to their targets shifts for both probes the equilibrium between the cell-permeable spirolactone and the fluorescent zwitterion towards the fluorescent form. To generate fluorescent stains for F-actin and microtubule in different colors, the inventors coupled jasplakinolide and docetaxel to 6-TAMRA and its N,N-dimethylsulfamide derivative (probes 169 and 172, named MaP555-actin and MaP555-tubulin in the following). […] The specificity of MaP555-actin and MaP555-tubulin was further confirmed by co-staining with SiR-actin and SiR-tubulin. […] Similarly, binding of MaP555-tubulin to microtubules caused a high increase in absorbance (5.8-fold) and fluorescence (11-fold).
In addition, the inventors coupled the acyl sulfonamide of carbopyronine to jasplakinolide, yielding the actin probe MaP618-actin (171).

F-actin = test: In vitro absorbance and fluorescence response on binding to actin; assay type: biochemical; conditions: for ε: general actin buffer; for F/F0: ± s.e.m.; for increase in absorbance / increase in fluorescence intensity: upon binding to F-actin, in vitro
[3] = 0.2% SDS in general actin buffer
[4] = MaP618-actin, orange fluorescence

## CN1CCc2cc3c(cc21)[Si](C)(C)c1cc2c(cc1C31OC(=O)c3ccc(C(=O)O)cc31)CCN2C [compound 35, reference compound]
[1]
  D50: 54^d
SNAP-Halo-tag
  Φ: 0.17
[2]; 0.1% SDS in HEPES buffer (pH 7.3)
  Φ: 0.16
[2]; HEPES buffer (pH 7.3)
  ε: 104,000^a M^−1cm^−1
  λabs: 694 nm
  λem: 718 nm

## C/C1=C\CC[C@H](C)OC(=O)C[C@H](c2ccc(O)cc2)NC(=O)[C@@H](Cc2c[nH]c3ccccc23)N(C)C(=O)[C@H](CCCCNC(=O)CCCCCNC(=O)c2ccc3c(c2)C2(c4ccc(N(C)C)cc4Oc4cc(N(C)C)ccc42)N(S(=O)(=O)N(C)C)C3=O)NC(=O)[C@@H](C)C1 [compound 169]
F-actin in U2OS cells
  live-cell staining of F-actin: enabled no-wash, high-contrast staining
F-actin; [3]
  Φ: 0.49
  ε^SDS: 103,000 M^−1cm^−1
F-actin; binding with actin
  Φ: 0.57
  ε^protein: 95,000 M^−1cm^−1
  λabs: 558
  λem: 580
F-actin
  ε: 3,600 M^−1cm^−1
  increase in absorbance: 26 fold
  increase in fluorescence intensity: 107 fold
F-actin; ratio of fluorescence intensities at 580 nm in the presence and absence of actin
  F/F0: 107 ± 9.6^m

## C/C1=C\CC[C@H](C)OC(=O)C[C@H](c2ccc(O)cc2)NC(=O)[C@@H](Cc2c[nH]c3ccccc23)N(C)C(=O)[C@H](CCCCNC(=O)CCCCCNC(=O)c2ccc3c(c2)C2(c4ccc(N(C)C)cc4C(C)(C)c4cc(N(C)C)ccc42)N(S(C)(=O)=O)C3=O)NC(=O)[C@@H](C)C1 [compound 171]
F-actin in U2OS cells
  live-cell staining of F-actin: clearly reveal F-actin structures
F-actin; [3]
  Φ: 0.71
  ε^SDS: 24,000^i M^−1cm^−1
F-actin; [4]
  λem: 635 nm
  λex: 618 nm
F-actin; binding with actin
  Φ: 0.78
  ε^protein: 61,000 M^−1cm^−1
  λabs: 618
  λem: 635
F-actin
  ε: 500 M⁻¹ cm⁻¹
  increase in absorbance: 122 fold
  increase in fluorescence intensity: 449 fold
F-actin; incubation with F-actin
  fluorogenicity relative to SiR-actin: about four times more fluorogenic
F-actin; ratio of fluorescence intensities at 635 nm in the presence and absence of actin
  F/F0: 449 ± 6.8^j
